Drawing on PubChem BioAssay (NCI), this text covers TGI and GI50 for eight compounds.

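Each compound was tested at five concentrations against cells in 96-well plates for 48 hours. At the GI50, growth is halved. At the TGI there is no net growth.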

Some test systems named below: HOP-62 NSCLC; UACC-62 melanoma; RXF 393 renal; MCF7 breast; SK-MEL-5 melanoma; OVCAR-4 ovarian; EKVX NSCLC; MDA-MB-231 breast; SNB-19 CNS; BT-549 breast.
Holding throughout (experiment): NCI-60 cell line screen, 48 h

As for `COc1cc(C2c3cc4c(cc3OC(O)C2C)OCO4)cc(OC)c1OC` (stereo not given), the TGI was above 100 µM in the test with HOP-62 NSCLC; above 100 µM with UACC-62 melanoma; above 100 µM with RXF 393 renal; above 55.9 µM in the test on MCF7 breast; 9.98 µM with SK-MEL-5 melanoma; above 79.4 µM in the test on OVCAR-4 ovarian. The TGI in the test on EKVX NSCLC was above 100 µM; in the test with MDA-MB-231 breast, 17.4 µM; with SNB-19 CNS it was above 100 µM; in the test on BT-549 breast it was above 59.2 µM.

On to `COc1ccc2nc(C)cc(Sc3nc4ccccc4s3)c2c1`, for which the GI50 in the test with HOP-62 NSCLC is 1260 nM; with UACC-62 melanoma, 717 nM; in the test with RXF 393 renal, 2630 nM; with MCF7 breast it was 1450 nM; in the test with SK-MEL-5 melanoma, 2880 nM; with OVCAR-4 ovarian, 993 nM. The GI50 is 1610 nM in the test with EKVX NSCLC, 1050 nM in the test with MDA-MB-231 breast, 3.46 µM in the test with SNB-19 CNS and 1280 nM with BT-549 breast. Besides, the TGI is 6.06 µM with HOP-62 NSCLC; 7.51 µM in the test with UACC-62 melanoma; 8.19 µM with RXF 393 renal; 11.1 µM with MCF7 breast; 13.5 µM with SK-MEL-5 melanoma; above 21.2 µM in the test on OVCAR-4 ovarian. For the same compound, the TGI with EKVX NSCLC was determined as 8 µM; in the test with MDA-MB-231 breast, 5.93 µM; with SNB-19 CNS, 28.8 µM; in the test with BT-549 breast, 4.45 µM.

Take `CCN(CC)CCCNCc1cc(-c2ccccc2)nc2cc(Cl)ccc12`: the GI50 with HOP-62 NSCLC was 5540 nM; in the test on UACC-62 melanoma, 1930 nM; in the test on RXF 393 renal, 2910 nM; in the test on MCF7 breast it was 1690 nM; in the test with SK-MEL-5 melanoma it was 1570 nM; in the test with OVCAR-4 ovarian, 7100 nM. For the same compound, the GI50 with EKVX NSCLC is 7850 nM; in the test on MDA-MB-231 breast, 1450 nM; with SNB-19 CNS, 10.2 µM; in the test with BT-549 breast, 8650 nM. The TGI in the test with HOP-62 NSCLC stood at 19.3 µM; in the test with UACC-62 melanoma it was 3.59 µM; in the test on RXF 393 renal it was 7.2 µM; with MCF7 breast it was 4.06 µM; with SK-MEL-5 melanoma, 3.13 µM; in the test on OVCAR-4 ovarian it was 20.5 µM. For the same compound, the TGI worked out at 24.3 µM in the test on EKVX NSCLC, 4.24 µM with MDA-MB-231 breast, 25.6 µM in the test on SNB-19 CNS and 21.6 µM in the test with BT-549 breast.

In the case of `CN1CCN(Cc2ccc(NC(=O)c3[nH]ncc3Nc3ncnc4[nH]ccc34)cc2)CC1`, the GI50 was 348 nM in the test with HOP-62 NSCLC; 411 nM in the test with UACC-62 melanoma; 199 nM in the test on RXF 393 renal; 118 nM in the test with MCF7 breast; 250 nM in the test on SK-MEL-5 melanoma; 215 nM in the test with OVCAR-4 ovarian. The GI50 was 368 nM in the test on EKVX NSCLC, 371 nM with MDA-MB-231 breast, 0.373 µM in the test with SNB-19 CNS and 297 nM in the test with BT-549 breast. In addition, the TGI with HOP-62 NSCLC came to 3.44 µM; in the test with UACC-62 melanoma, 1.82 µM; in the test with RXF 393 renal, 0.464 µM; in the test with MCF7 breast it was 29.1 µM; in the test with SK-MEL-5 melanoma it was 0.778 µM; with OVCAR-4 ovarian, 0.68 µM. Also, the TGI with EKVX NSCLC came out at 2.64 µM; with MDA-MB-231 breast, 0.941 µM; in the test with SNB-19 CNS, 6.59 µM; in the test on BT-549 breast, 1.07 µM.

As to `Cc1nn(C)c2ncnc(N/N=C/c3cccc(O)c3O)c12`, the GI50 was 1080 nM in the test on HOP-62 NSCLC; 1690 nM in the test on UACC-62 melanoma; 513 nM in the test with RXF 393 renal; 594 nM with MCF7 breast; 433 nM in the test with SK-MEL-5 melanoma; 378 nM with OVCAR-4 ovarian. For the same compound, the GI50 is 2780 nM in the test with EKVX NSCLC, 486 nM in the test with MDA-MB-231 breast, 0.664 µM in the test on SNB-19 CNS and 602 nM with BT-549 breast. For the same compound, the TGI is 15.1 µM in the test with HOP-62 NSCLC; 5.98 µM in the test on UACC-62 melanoma; above 27.7 µM with RXF 393 renal; above 100 µM in the test on MCF7 breast; 2.31 µM in the test on SK-MEL-5 melanoma; 23.4 µM in the test on OVCAR-4 ovarian. In addition, the TGI with EKVX NSCLC is above 100 µM; in the test with MDA-MB-231 breast, 39.5 µM; with SNB-19 CNS it was above 48.4 µM; in the test on BT-549 breast, above 100 µM.

In the case of `O=C1NC(=O)C(=Cc2cn(Cc3ccccc3)c3ccccc23)C(=O)N1`, the GI50 in the test with HOP-62 NSCLC is 15200 nM; in the test on UACC-62 melanoma, 2070 nM; with RXF 393 renal it was 11600 nM; in the test on MCF7 breast, 6540 nM; in the test on SK-MEL-5 melanoma it was 11300 nM; in the test with OVCAR-4 ovarian it was 4840 nM. Further, the GI50 in the test with EKVX NSCLC was 21300 nM; in the test on MDA-MB-231 breast, 15200 nM; in the test with SNB-19 CNS, 16.2 µM; in the test on BT-549 breast, 15400 nM. Also, the TGI is 37.7 µM with HOP-62 NSCLC; 15.7 µM in the test on UACC-62 melanoma; 48.3 µM with RXF 393 renal; 23 µM in the test with MCF7 breast; above 55.5 µM in the test on SK-MEL-5 melanoma; 21 µM in the test on OVCAR-4 ovarian. For the same compound, the TGI was above 63.5 µM in the test with EKVX NSCLC, 43.9 µM with MDA-MB-231 breast, 38.9 µM in the test on SNB-19 CNS and 50.1 µM in the test on BT-549 breast.

As for `COC1=C(OC)C(=O)C(C/C=C(\C)CC/C=C(\C)CC/C=C(\C)CC/C=C(\C)CC/C=C(\C)CC/C=C(\C)CC/C=C(\C)CC/C=C(\C)CC/C=C(\C)CCC=C(C)C)=C(C)C1=O`, the GI50 in the test on HOP-62 NSCLC, in the test with UACC-62 melanoma, in the test with RXF 393 renal, in the test with MCF7 breast, in the test on SK-MEL-5 melanoma and in the test with OVCAR-4 ovarian was above 100000 nM each time. Further, the GI50 in the test with EKVX NSCLC was above 100000 nM; in the test with MDA-MB-231 breast, above 100000 nM; with SNB-19 CNS, above 100 µM; in the test on BT-549 breast, above 100000 nM. Further, the TGI in the test on HOP-62 NSCLC, with UACC-62 melanoma, with RXF 393 renal, in the test with MCF7 breast, in the test on SK-MEL-5 melanoma and in the test on OVCAR-4 ovarian was above 100 µM throughout. The TGI with EKVX NSCLC, with MDA-MB-231 breast, in the test with SNB-19 CNS and with BT-549 breast was above 100 µM in each case.

On to `COc1c(OC)c(OC)c2c(=O)cc(-c3ccc(OC(C)C)cc3)oc2c1OC`, for which the TGI in the test with HOP-62 NSCLC was 37.5 µM; with UACC-62 melanoma it was 32 µM; in the test with RXF 393 renal, above 48.7 µM; in the test with MCF7 breast it was 35.8 µM; in the test on SK-MEL-5 melanoma, 25.5 µM; in the test with OVCAR-4 ovarian, above 49.2 µM. The TGI was above 54.9 µM with EKVX NSCLC, above 54.2 µM in the test on MDA-MB-231 breast, above 53.5 µM in the test on SNB-19 CNS and above 49.9 µM in the test with BT-549 breast.
